Assay results from patent US12624034B2, “Non-covalent modifiers of AKT1 and uses thereof” (Terremoto Biosciences, Inc., priority 2023, dated 2026).
Like-named read-outs stand apart in the source and are kept apart here.

How the values were obtained:
AKT1 WT = target: T1, AKT1 WT (Homo sapiens, UniProt P31749); assay: Live cell AKT1 WT target engagement by NanoBRET competitive probe displacement in HEK293 cells; assay type: binding; settings: 2 h at 37° C., read-out: AKT1 WT IC50
T1 construct: expressed in transfected cells; host or cells: HEK293
T1 sequence (P31749 whole entry): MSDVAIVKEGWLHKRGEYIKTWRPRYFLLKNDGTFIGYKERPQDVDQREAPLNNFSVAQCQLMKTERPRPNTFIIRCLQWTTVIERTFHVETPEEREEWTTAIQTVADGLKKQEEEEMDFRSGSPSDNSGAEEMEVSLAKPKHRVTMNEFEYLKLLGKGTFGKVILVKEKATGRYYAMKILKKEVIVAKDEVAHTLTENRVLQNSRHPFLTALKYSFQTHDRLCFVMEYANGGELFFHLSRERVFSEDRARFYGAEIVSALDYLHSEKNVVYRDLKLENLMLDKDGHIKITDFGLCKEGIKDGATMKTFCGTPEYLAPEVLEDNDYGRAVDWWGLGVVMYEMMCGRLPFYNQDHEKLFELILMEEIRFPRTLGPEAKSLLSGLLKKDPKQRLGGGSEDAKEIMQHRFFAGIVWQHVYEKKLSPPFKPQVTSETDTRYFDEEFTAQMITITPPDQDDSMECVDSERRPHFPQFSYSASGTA

AKT2 = target: T2, AKT2 (Homo sapiens, UniProt P31751); assay: Live cell AKT2 target engagement by NanoBRET competitive probe displacement in HEK293 cells; assay type: binding; settings: 2 h at 37° C., read-out: AKT2 IC50
T2 construct: expressed in transfected cells; host or cells: HEK293
T2 sequence (P31751 whole entry): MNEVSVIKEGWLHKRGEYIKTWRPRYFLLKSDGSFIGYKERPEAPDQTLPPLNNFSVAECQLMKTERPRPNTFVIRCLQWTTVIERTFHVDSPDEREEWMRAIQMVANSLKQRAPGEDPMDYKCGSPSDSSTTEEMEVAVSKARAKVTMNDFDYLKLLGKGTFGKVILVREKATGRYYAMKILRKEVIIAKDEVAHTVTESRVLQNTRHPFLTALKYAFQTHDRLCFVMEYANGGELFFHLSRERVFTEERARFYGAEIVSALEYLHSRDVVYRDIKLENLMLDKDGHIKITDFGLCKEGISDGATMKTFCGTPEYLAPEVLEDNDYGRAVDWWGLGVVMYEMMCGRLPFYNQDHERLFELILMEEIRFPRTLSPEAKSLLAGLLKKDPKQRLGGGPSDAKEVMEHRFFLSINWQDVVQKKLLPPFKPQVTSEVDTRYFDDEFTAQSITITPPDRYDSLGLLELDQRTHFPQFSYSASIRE

[1] = NanoBRET competitive probe displacement, live HEK293 cells
[2] = NanoBRET live cell target engagement, HEK293 cells

Structure (SMILES) | IC50 (AKT1 WT; [1]) [nM] | IC50 (AKT2; [1]) [nM] | IC50 (AKT1 WT; [2]) [nM] | IC50 (AKT2; [2]) [nM]
Cc1cn2cc(C(=O)N[C@H]3CCc4cc(-n5c(-c6cccnc6N)nc6ccc(-n7cccn7)nc65)ccc43)ccc2n1 [Compound 72] | – | – | 7.95 | 28.1
CC#Cc1ccc2nc(-c3cccnc3N)n(-c3ccc4c(c3)CC[C@@H]4NC(=O)c3ccc(C)nc3)c2n1 [Compound 265] | – | – | 35.9 | 1870
Nc1ncccc1-c1nc2ccc(-c3ccn(C(F)F)n3)nc2n1-c1ccc2c(c1)CC[C@@H]2n1ccnn1 [Compound 315] | – | – | 23.9 | 617
CN(CC1CC1)[C@H]1CCc2cc(-n3c(-c4cccnc4N)nc4ccc(-n5cccn5)nc43)ccc21 [Compound 437] | 80.7 | 1570 | – | –
Nc1ncccc1-c1nc2ccc(-n3cccn3)nc2n1-c1ccc2c(c1)CC[C@@H]2NC(=O)c1cnc2c(c1)CC(=O)N2 [Compound 224] | – | – | 32.1 | 342
Cc1ccc(C(=O)N[C@H]2CCc3cc(-n4c(-c5cccnc5N)nc5ccc(-c6ncn(C)n6)nc54)ccc32)cn1 [Compound 455, (S)—N-(5-(2-(2-aminopyridin-3-yl)-5-(1-methyl-1H-1,2,4-triazol-3-yl)-3H-imidazo[4,5-b]pyridin-3-yl)-2,3-dihydro-1H-inden-1-yl)-6-methylnicotinamide] | 195 | 3020 | – | –
Cc1ccc(C(C)N[C@H]2CCc3cc(-n4c(-c5cccnc5N)nc5ccc(-n6cccn6)nc54)ccc32)cn1 (stereo partly drawn) [Compound 153] | – | – | 120 | 2220
Nc1ncccc1-c1nc2ccc(-n3cccn3)nc2n1-c1ccc2c(c1)CC[C@@H]2n1cnnc1Cc1ccccc1 [Compound 169, (S)-3-(3-(1-(3-benzyl-4H-1,2,4-triazol-4-yl)-2,3-dihydro-1H-inden-5-yl)-5-(1H-pyrazol-1-yl)-3H-imidazo[4,5-b]pyridin-2-yl)pyridin-2-amine] | – | – | 12 | 228
Cn1ccc(C#Cc2ncccc2C(=O)N[C@H]2CCc3cc(-n4c(-c5cccnc5N)nc5ccc(-n6cccn6)nc54)ccc32)n1 [Compound 181] | – | – | 78.4 | 3680
Nc1ncccc1-c1nc2ccc(-n3cccn3)nc2n1-c1ccc2c(c1)CC[C@@H]2NC(=O)c1ccc2[nH][nH]c(=O)c2c1 [Compound 189] | – | – | 554 | 2850
Nc1ncccc1-c1nc2ccc(-n3ccc(C4CC4)n3)nc2n1-c1ccc2c(c1)CC[C@@H]2NC1CCN(C(=O)C2CC2)CC1 [Compound 442] | 72.6 | 1600 | – | –
Nc1ncccc1-c1nc2ccc(-n3cccn3)nc2n1-c1ccc2c(c1)CC[C@@H]2n1ccc(=O)cc1 [Compound 83, (S)-1-(5-(2-(2-aminopyridin-3-yl)-5-(1H-pyrazol-1-yl)-3H-imidazo[4,5-b]pyridin-3-yl)-2,3-dihydro-1H-inden-1-yl)pyridin-4(1H)-one] | – | – | 139 | 867
Cc1cc2c(=O)n([C@H]3CCc4cc(-n5c(-c6cccnc6N)nc6ccc(-n7cccn7)nc65)ccc43)cnc2cn1 [Compound 81, (S)-3-(5-(2-(2-aminopyridin-3-yl)-5-(1H-pyrazol-1-yl)-3H-imidazo[4,5-b]pyridin-3-yl)-2,3-dihydro-1H-inden-1-yl)-6-methylpyrido[3,4-d]pyrimidin-4(3H)-one] | – | – | 121 | 2900
Nc1ncccc1-c1nc2ccc(-n3cccn3)nc2n1-c1ccc2c(c1)CC[C@@H]2NC(=O)c1ccc(N2CCOCC2)nc1 [Compound 95] | – | – | 6.98 | 9.41
COc1cc(C(=O)N[C@H]2CCc3cc(-n4c(-c5cccnc5N)nc5ccc(-n6cccn6)nc54)ccc32)n(C)n1 [Compound 158] | – | – | 13.5 | 124
Nc1ncccc1-c1nc2ccc(-n3cccn3)nc2n1-c1ccc2c(c1)CC[C@@H]2NC1CCN(C(=O)C2CC2)CC1F (stereo partly drawn) [Compound 443] | 23.2 | 940 | – | –
Nc1ncccc1-c1nc2ccc(-n3cccn3)nc2n1-c1ccc2c(c1)CC[C@@H]2NC(=O)c1ccc(F)c(O)c1 [Compound 293] | – | – | 12.3 | 83.8
Nc1ncccc1-c1nc2ccc(-n3cccn3)nc2n1-c1ccc2c(c1)CC[C@@H]2NC(=O)c1cccc(F)c1 [Compound 332] | – | – | 7.58 | 60.2
Nc1ncccc1-c1nc2ccc(-n3cccn3)nc2n1-c1ccc2c(c1)CC[C@@H]2NC(=O)c1ccc(OC(F)(F)F)nc1 [Compound 68] | – | – | 5.29 | 15.2
Nc1ncccc1-c1nc2ccc(-n3cccn3)nc2n1-c1ccc2c(c1)CC[C@@H]2NC1CCN(C(=O)C2CC2)CC1F (stereo partly drawn) [Compound 445] | 20.2 | 980 | – | –
Nc1ncccc1-c1nc2ccc(-n3cccn3)nc2n1-c1ccc2c(c1)CC[C@@H]2NC1CCN(C(=O)[C@@H]2CCO2)CC1 [Compound 424] | 122 | 5380 | – | –
CS(=O)(=O)Nc1ccc(C(=O)N[C@H]2CCc3cc(-n4c(-c5cccnc5N)nc5ccc(-n6cccn6)nc54)ccc32)cn1 [Compound 231] | – | – | 504 | 3870
Cc1cncc(C(=O)N[C@H]2CCc3cc(-n4c(-c5cccnc5N)nc5ccc(-n6cccn6)nc54)ccc32)n1 [Compound 186] | – | – | 76.3 | 3270
Cc1ncccc1-c1cn([C@H]2CCc3cc(-n4c(-c5cccnc5N)nc5ccc(-n6cccn6)nc54)ccc32)nn1 [Compound 254] | – | – | 23.9 | 753
Cc1nc2ncccc2c(=O)n1[C@H]1CCc2cc(-n3c(-c4cccnc4N)nc4ccc(-n5cccn5)nc43)ccc21 [Compound 180] | – | – | 91.8 | 1150
COCc1ncccc1C(=O)N[C@H]1CCc2cc(-n3c(-c4cccnc4N)nc4ccc(-n5cccn5)nc43)ccc21 [Compound 149] | – | – | 50.3 | 1580
Nc1ncccc1-c1nc2ccc(-n3cccn3)nc2n1-c1ccc2c(c1)CC[C@@H]2n1cc(-c2ccccn2)nn1 [Compound 200] | – | – | 14.7 | 212
Cc1csc(-c2ccc3nc(-c4cccnc4N)n(-c4ccc5c(c4)CC[C@@H]5NC(=O)c4nccnc4C)c3n2)n1 [Compound 302] | – | – | 20.9 | 456
Cc1ccc(C(C)N[C@H]2CCc3cc(-n4c(-c5cccnc5N)nc5ccc(-n6cccn6)nc54)ccc32)cn1 (stereo partly drawn) [Compound 154] | – | – | 508 | 3180
Nc1ncccc1-c1nc2ccc(-n3cccn3)nc2n1-c1ccc2c(c1)CC[C@@H]2NC(=O)c1ccc(C(F)(F)F)nc1 [Compound 77] | – | – | 13.6 | 50.1

Second part, the compound after the results:

IC50 (AKT1 WT; [1]) [nM] | IC50 (AKT2; [1]) [nM] | IC50 (AKT1 WT; [2]) [nM] | IC50 (AKT2; [2]) [nM] | Structure (SMILES)
170 | 4360 | – | – | Nc1ncccc1-c1nc2ccc(-n3cccn3)nc2n1-c1ccc2c(c1)CC[C@@H]2NC1CCN(C(=O)[C@@H]2C[C@@H]2F)CC1 [Compound 477]
10.5 | 246 | – | – | CN1CC(Oc2ccn(-c3ccc4nc(-c5cccnc5N)n(-c5ccc6c(c5)CC[C@@H]6NC5CCN(C(=O)C6CC6)CC5)c4n3)n2)C1 [Compound 566]
21.2 | 422 | – | – | Nc1ncccc1-c1nc2ccc(-n3cccn3)nc2n1-c1ccc2c(c1)CC[C@@H]2NC1Cc2cccnc2C1 (stereo partly drawn) [Compound 530]
50.9 | 997 | – | – | COc1cnn(-c2ccc3nc(-c4cccnc4N)n(-c4ccc5c(c4)CC[C@@H]5NC4CCN(C(=O)C5CC5)CC4)c3n2)c1 [Compound 485]
418 | 7070 | – | – | Nc1ncccc1-c1nc2ccc(-n3cccn3)nc2n1-c1ccc2c(c1)CC[C@@H]2NC1CCc2nc(C(F)F)sc21 (stereo partly drawn) [Compound 600]
3.8 | 40.5 | – | – | CN1CCN(c2ccn(-c3ccc4nc(-c5cccnc5N)n(-c5ccc6c(c5)CC[C@@H]6NC5CCN(c6ccn(C)n6)CC5)c4n3)n2)CC1 [Compound 598]
20.5 | 695 | – | – | Nc1ncccc1-c1nc2ccc(-n3cccn3)nc2n1-c1ccc2c(c1)CC[C@@H]2NC1CCCc2ccncc21 (stereo partly drawn) [Compound 501]
9.86 | 274 | – | – | Nc1ncccc1-c1nc2ccc(-n3ccc(N4CCS(=O)(=O)CC4)n3)nc2n1-c1ccc2c(c1)CC[C@@H]2NC1CCN(C(=O)C2CC2)CC1 [Compound 565]
107 | 3180 | – | – | Cn1c(C(=O)N[C@H]2CCc3cc(-n4c(-c5cccnc5N)nc5ccc(-n6nccn6)nc54)ccc32)cnc1C1CC1 [Compound 540]
74.9 | 1690 | – | – | Cn1c(C(=O)N[C@H]2CCc3cc(-n4c(-c5cccnc5N)nc5ccc(-n6nccn6)nc54)ccc32)cnc1C(F)F [Compound 578]
68.2 | 777 | – | – | Nc1ncccc1-c1nc2ccc(-n3cccn3)nc2n1-c1ccc2c(c1)CC[C@@H]2NC1CCN(c2ccccc2)C1 (stereo partly drawn) [Compound 470]
5.46 | 556 | – | – | Cc1nc(C(F)F)sc1C(=O)N[C@H]1CCc2cc(-n3c(-c4cccnc4N)nc4ccc(-n5nccn5)nc43)ccc21 [Compound 541]
2.22 | 176 | – | – | N[C@@H]1c2ccc(-n3c(-c4ccccc4F)nc4ccc(-n5ccc(N6CCOCC6)n5)nc43)cc2CC1F (stereo partly drawn) [Compound 571]
45.2 | 1540 | – | – | COCc1ccn(-c2ccc3nc(-c4cccnc4N)n(-c4ccc5c(c4)CC[C@@H]5NC4CCN(C(=O)C5CC5)CC4)c3n2)n1 [Compound 590]
524 | > 10000 | – | – | Nc1ncccc1-c1nc2ccc(-n3cccn3)nc2n1-c1ccc2c(c1)CC(F)C2NC1CCN(C(=O)C2CC2)CC1 (stereo not drawn) [Compound 522]
19.7 | 409 | – | – | COc1ccn(-c2ccc3nc(-c4cccnc4N)n(-c4ccc5c(c4)CC[C@@H]5NC4CCN(C(=O)C5CC5)CC4F)c3n2)n1 (stereo partly drawn) [Compound 512]
30.9 | 7440 | – | – | Nc1ncccc1-c1nc2ccc(-n3ccc(OC(F)F)n3)nc2n1-c1ccc2c(c1)CC[C@@H]2NC1CCN(C(=O)C2CC2)CC1 [Compound 483]
126 | 3170 | – | – | Nc1ncccc1-c1nc2ccc(-n3cccn3)nc2n1-c1ccc2c(c1)CC[C@@H]2NC1CCN(C(=O)[C@H]2C[C@H]2F)CC1 [Compound 478]
